Reference: patent US20090238852A1, “METHODS FOR CONTROLLING INTRACELLULAR CALCIUM LEVELS ASSOCIATED WITH AN ISCHEMIC EVENT” (University of Utah Research Foundation, priority 2008, published 2009)

Tests used:
[1] = system: rabbit ventricular myocytes; test: Intracellular calcium [Ca^++]i in ventricular myocytes during paced metabolic ischemia (PMI), Fluo-3 flow cytometry; format: cell-based
Source text: Consequently, it prevents intracellular sodium overload and subsequent reverse mode operation of the sodium-calcium exchanger. The effect of 2-O, 3-O desulfated heparin on accumulation of intracellular Ca^++ during ischemia was studied in an adult rabbit ventricular myocyte model previously reported (Boston D R, et al. J Pharmacol Exp Ther 285:716-723, 1998; Li F, et al. J Mol Cell Cardiol 33:2145-2155, 2001). Isolated cardiomyocytes have been validated as reliable models of ischemia (Diaz, R J, Wilson G J. Cardiovasc Res 70:286-296, 2006).
To produce the model, hearts are removed from albino rabbits (2-3 kg) anesthetized with sodium pentobarbital (65 mg/kg IV). The heart was immediately attached to an aorta cannula. Continuous perfusion of the coronary arteries at 37° C. by a pump (Masterflex, Cole-Parmer Instrument Co., Chicago, Ill.) was initiated at a perfusion pressure of 60 mm Hg. The heart was first perfused with nominally Ca^++-free modified Krebs-Ringer bicarbonate buffered solution (MKRBB, pH 7.40, containing in mmol/L: NaCl 126, KCl 4.4, […], MgCl2 1.0, HEPES 24, probenecid 0.5 and glucose 5) for 10 min, immediately followed by 15-25 min of recirculating perfusion with the same solutions containing 0.3 mg/ml collagenase (Type 2, Worthington Biochemical, Freehold, N.J.), 0.4 mg/mL hyaluronidase (Type-S, Sigma-Aldrich, St. Louis, Mo.) and 50 μmol/L CaCl2. The heart was then detached from the cannula, and the left ventricle was minced and transferred to a 50 mL conical tube with the same solution containing 0.24 mg/mL collagenase, 0.02 mg/mL trypsin and 50 μmol/L Ca^++ for a second digestion. The minced tissue was continuously agitated by gassing the solution with 5% CO2 and 95% O2 to help release isolated myocytes. The resulting supernatant was transferred to another conical tube with the same volume of the same solution containing 0.03 mg/mL of trypsin inhibitor (Sigma-Aldrich). The cell suspension was centrifuged at 5×g for 5 minutes. The supernatant was discarded and cells were resuspended in solution with a higher Ca^++ concentration (200 μmol/L) and incubated in a CO2 incubator (5% CO2, 28° C.) to settle down cells by gravity for 10 min. The same procedure was repeated twice to bring up the Ca^++ concentration slowly (500, then 1000 μmol/L). Calcium step-up solutions were made from MKRBB with 2% albumin, 50 μmol/L CaCl2 mixed with the appropriate amount of minimum essential medium (MEM, Gibco Laboratories, Grand Island, N.Y.). At the end of isolation, cells were filtered with a […] to avoid cell clumping during flow cytometry studies. The yield of rod-shaped viable myocytes averaged 50%. Cells were used for experiments within 4 hours after dissociation.
In these studies, intracellular calcium concentration [Ca^++]i was measured by flow cytometry. Measurement of isolated mouse and rabbit ventricular myocyte [Ca^2+]i and [Na^+]i by flow cytometry has been described (Zhang et al., J. Cardiovasc. Pharmacol. 51: 443-449 (2008); Li et al., J. Mol. Cell. Cardiol. 33: 2145-2155 (2001)). [Ca^++]i was measured with the Ca^++ sensitive fluorescent probe, Fluo 3-AM (Molecular Probes, Eugene, Oreg.), using a FACScan (Becton-Dickinson, MA). The cells were exposed to 4 μmol/L Fluo-3 AM for 30 min at 37° C. The cells were then separated into aliquots. After 40 min of wash, the cells were exposed to paced metabolic ischemia (MI) for 45 min at 37° C. Metabolic ischemia was accomplished by incubating cells in a glucose-free MKRBB solution (pH 7.40) containing 2 mmol/L sodium cyanide (NaCN) to impair mitochondrial and glycolytic generation of ATP. To reproduce the situation in the beating ischemic heart, during the period of metabolic ischemia, myocytes were placed in a 5-well chamber with equal volumes of myocyte suspensions from the same heart dissociation placed in each well. The chamber was water bathed to maintain temperature at 37° C. and bubbled with 5% CO2 in air to keep myocytes in suspension. […]

[2] = system: blood coagulation (aPTT, PT, ACT); test: Phase I single IV bolus study: coagulation tests (aPTT, PT, ACT); format: in vivo, human
Method: A study was performed in 38 volunteer human subjects to assess the safety of escalating bolus doses of 2-O, 3-O desulfated heparin (ODSH). The study was a Phase I, randomized, double-blind, dose-escalation study with a single-day treatment period. Subjects were between the ages of 18 and 45, were not pregnant, and were normal in body weight. They all had normal coagulation function and hemoglobin values at baseline.
Two subjects also received an injection of fully anticoagulated unfractionated heparin for comparison. ODSH dose groups were run in a series, and safety and tolerance data were evaluated prior to the start of the next dose level (4, 8 12, 16 and 20 mg/kg bolus intravenous doses). Twenty eight (28) subjects randomly received ODSH and 9 subjects were randomized to receive placebo, with an additional two subjects receiving commercially available unfractionated heparin.
For each bolus dose, ODSH as a 50 mg/mL formulation was diluted with normal saline and a total volume of 50 ml was infused over 15 minutes containing the calculated amount of ODSH the subject was to receive. Placebo consisted of 50 mL of normal saline infused over 15 minutes. For subjects receiving heparin, 5,000 units (approximately 0.5 mg/kg) of heparin was diluted into 50 ml of normal saline and infused over 15 minutes.
Immediately before infusion and beginning 7 minutes after the start of each infusion, blood was drawn at periodic times for 24 hours to monitor the effect of infusion on the following laboratory studies: activated partial thromboplastin time (aPTT); prothrombin time (PT); activated clotting time (ACT); and ODSH plasma level. Serum chemistries and a complete blood count were checked immediately before infusion and at eight (8) and twenty-four (24) hours later. Using values for aPTT and ODSH levels, pharmacokinetic parameters were calculated by noncompartmental methods using a commercial software program (PhAST 2.3-001). […]

[3] = system: platelets with HIT antibody; test: Serotonin release assay (SRA) with HIT-positive serum; settings: ODSH added with heparin to the HIT antibody
Method: Two techniques were employed to measure platelet activation in response to heparin or 2-O desulfated heparin in the presence of HIT-reactive serum.
The first technique was the serotonin release assay (SRA), considered the gold standard laboratory test for HIT, and performed as described by Sheridan (Sheridan D, et al. Blood 67:27-30, 1986). Washed platelets were loaded with ^14C serotonin (^14C-hydroxy-tryptamine-creatine sulfate, Amersham), and then incubated with various concentrations of test heparin or heparin analog in the presence of serum from known HIT-positive patients as a source of antibody. Activation was assessed as ^14C serotonin release from platelets during activation, with ^14C serotonin quantitated using a liquid scintillation counter. […] Activated platelets are defined as percent isotope release of ≧20%.
The initial 3 ml (milliliters) of whole blood in the first syringe was discarded. The anticoagulated blood was centrifuged (80×g (gravity), 15 min, room temperature) to obtain platelet rich plasma (PRP). […] EDTA was added to stop the reaction, and the mixture was centrifuged to pellet the platelets. ^14C-serotonin released into the supernatant was measured on a scintillation counter. Maximal release was measured following platelet lysis with 10% Triton X-100. […]

[4] = human, in vivo
Method: A study was performed in eight (8) healthy adult male and female subjects to assess the effects of a bolus dose and 72 hour infusion of 2-O, 3-O desulfated heparin. The study was a Phase I study with a three day treatment period. Doses were adjusted to maintain an aPTT level of 40-45 seconds. Subjects were between the ages of 18 and 60, were not pregnant, and were normal in body weight. They all had normal coagulation function and hemoglobin values at baseline.
Subjects received an initial bolus of 8 mg/kg of ODSH over 15 minutes, followed by 72 hours continuous infusion beginning at 0.58 mg/kg/hr. For each subject ODSH as a 50 mg/ml formulation was diluted with normal saline and administered as a bolus infused over 15 minutes containing the calculated amount of ODSH the subject was to receive, followed by infusion of ODSH diluted in saline. The infusion dose was adjusted to maintain an aPTT of 40-45 seconds. Immediately before infusion and after the start of each infusion, blood was drawn at periodic times (over a total 72 hour period) to monitor the effect of infusion on the following laboratory studies: activated partial thromboplastin time (aPTT), prothrombin time (PT), activated clotting time (ACT), and ODSH plasma level. Serum chemistries and a complete blood count were checked immediately before infusion and again periodically for up to 240 hours later. Using values for aPTT and ODSH levels, pharmacokinetic parameters were calculated by noncompartmental methods using a commercial software program (PhAST 2.3-001). The following pharmacokinetic parameters were calculated as above: Cmax; Kel; tmax; AUC O-t; AUCinf, t1/2; CL; and Vdss.

For 2-O, 3-O desulfated heparin [ODSH], the “effect on myocyte [Ca^2+]i during simulated ischemia” value ([1]; 45 min P-MI, ODSH 1, 10, 100 μg/mL, FIG. 3) was “dose-dependent reduction of [Ca^2+]I”, the “further reduction in [Ca^2+]i in the presence of KBR” value ([1]; ODSH 100 μg/mL with KBR 10 μmol/L, 45 min simulated ischemia, FIG. 4) was “no significant further reduction in [Ca^2+]i” and the “additional effect on Ca^2+ loading during P-MI in the presence of ranolazine” value ([1]; ODSH 100 μg/ml with ranolazine 10 μM, FIG. 8) was “no additional effect on Ca^2+ loading”. For the same substance, the “[Ca^++]i” value ([1]; PMI 45 min + ODSH 1 μg/mL, n = 7, PMI alone 1133.6 ± 78.4, Hepes 241.9 ± 23.0) was 1013.8 ± 69.2 nM, the “[Ca^++]i” value ([1]; PMI 45 min + ODSH 10 μg/mL, n = 7, PMI alone 1133.6 ± 78.4) was 739.0 ± 63.8 nM and the “[Ca^++]i” value ([1]; PMI 45 min + ODSH 100 μg/mL, n = 7, PMI alone 1133.6 ± 78.4) was 684.3 ± 66.9 nM. For the same substance, the “[Ca^++]i” value ([1]; Table 6: PMI + ODSH 100 μg/mL, n = 7, PMI alone 985.5 ± 42.7, Hepes 269.6 ± 8.3) was 688.6 ± 33.4 nM, the “effect on [Ca^2+]i during P-MI” value ([1]; each alone: ODSH 100 μg/ml, ranolazine 10 μM, FIG. 8, n = 7) was “reduced [Ca^2+]i to a similar degree” and the PT ([2]; IV bolus 4 to 20 mg/kg) was “increased in a dose-dependent manner”. For the same substance, the “change from baseline in aPTT” value ([2]; IV bolus 4 to 20 mg/kg, FIG. 16) was “rapid increase in aPTT over the infusion period in a dose-dependent fashion”, the “mean ACT value at 15 minutes” value ([2]; ODSH 20 mg/kg IV bolus) was 207 s and the “change from baseline in ACT” value ([2]; bolus doses of 12-20 mg/kg, FIG. 17) was “Therapeutic increases in the ACT”. The “effect on heparin-induced platelet activation” value [3] was “prevented heparin from causing platelet activation”, the CL [4] was 0.17 mL/min/kg and the Vdss [4] was 0.0489 L/kg. For the same substance, the t1/2 [4] was 3.3 h, the tmax [4] was 0.5 h and the “AUC, range across subjects” value ([4]; 8 mg/kg) was 3,528-4,694 μg hr/mL. The “CL, range across subjects” value ([4]; 8 mg/kg) was 0.147 to 0.197 mL/min/kg, the “Cmax, range across subjects” value ([4]; 8 mg/kg) was 131 to 192 µg/mL and the “Vdss, range across subjects” value ([4]; 8 mg/kg) was 0.0237 to 0.0662 L/kg. The “t1/2, range across subjects” value ([4]; 8 mg/kg) was 1.9 to 4.4 h.
